The subject of data set [1] is Monosodium Iodoacetate Induced Osteoarthritis. Nature of the data set: Monosodium iodoacetate (MIA) induced osteoarthritis. It is filed as in vivo, Male Wistar rats. The text has this: Male Wistar rats were acclimated to the testing facility for 5 days. The rats were individually housed in micro-isolator shoe-box polycarbonate cages with cob bedding and water bottles. Dry pelleted food of known composition and nutritional components was provided ad libitum Animals were randomized by treatment type using an online random number generator. Each treatment group was assigned a number, entered into the random number generator, recorded then translated back to the associated treatment. All injections were given in the left leg unless the treatment indicated “Contralateral” in which case the injection was given in the right leg. Both legs were shaved on all animals at the time of the treatment injections to blind the test administrator. The rats were weighed the day prior to injection with monosodium iodoacetate (MIA), the agent used to induce osteoarthritis in the animals. The day of injection, rats from groups 2-8 received a subcutaneous (SC) dose of buprenorphine at least one hour prior to induction. […] Naïve animals were then placed in recovery. All other animals received an injection of MIA. In animals receiving MIA, the hind leg was flexed and an injection of MIA (25 μL) was injected into the intra-articular space using a 27 gauge ½ inch needle. Standard postoperative care was performed (twice daily for 48 hours). On Day 8 the test article was administered as described above. On Days −1, 7, 14, 21, 28, and 35 post-induction, weight bearing was assessed. A weight bearing scale was utilized using a plexiglass chamber to assess the amount of weight distributed in each hind limb. The animals were acclimated to the chamber for at least 5 minutes prior to testing and the weight distribution was recorded 5 times. The animals were terminated at day 36. Both stifles were collected from each animal; the skin was removed from the joint and the patella was removed while leaving as much of the fat pad intact with the joint. The stifle was placed in the appropriate cassette with rolled gauze to secure the stifle in the cassette and then placed into 4% Paraformaldehyde. These samples were examined histologically.

Data set [2] concerns Reactivated Peptidoglycan-Polysaccharide Knee Arthritis. Nature of the data set: Reactivated peptidoglycan-polysaccharide (PGPS) knee arthritis. Particulars: for gait scores, second reactivation: intra-articular dose on day −7 (Triamcinolone 0.06 mg: day 15, 17, 18; test compound 1 mg: throughout second reactivation); for gait deficiency, second reactivation / gait scores and deficiency, first reactivation: intra-articular dose on day −7 (Triamcinolone 0.06 mg; test compound 1 mg); for gait deficiency, second reactivation: days 15, 17 and 18; for gait scores and deficiency, first reactivation: first reactivation (days 1-4). It is filed as in vivo, Male Lewis rats. The source says: Male Lewis rats were acclimated to the testing facility for 7 days. The rats were housed in 5 per cage in shoe-box polycarbonate cages with wire tops, wood chip bedding and suspended food and water bottles. On day −21, the male Lewis rats were randomized into treatment groups by body weight. The rats were anesthetized and injected with peptidoglycan-polysaccharide (PGPS) into the right knee to induce PGPS arthritis. Arthritis was reactivated on days 0 and 14 by an IV tail injection of PGPS. […] The rats were weighed at baseline on days 0, 4, 14 and 18. […] Gait analysis was performed by applying ink to the ventral surface of the foot and documenting weight bearing during movement across paper. The animals were terminated at day 18. Right knees were removed, trimmed of extraneous tissue, and collected into 10% neutral buffered formalin. After two days in the formalin buffer and three days in 10% formic acid decalcifier, the knees were cut into two approximately equal halves in the frontal plane and processed for paraffin embedding and stained with T. Blue. Histological examinations were subsequently performed for bone resorption, inflammation, pannus and cartilage damage. […] Gait scores were analyzed using a Kruskal-Wallis test (non-parametric ANOVA) with Dunn's multiple comparison post-test. Histopathology scores were analyzed using a Kruskal-Wallis test (non-parametric ANOVA) with Dunn's multiple comparison post-test.

Where [3] appears, read: Triamcinolone 0.06 mg intra-articular.

The text below walks through data of patent US10166239B2, “Tropomyosin-related kinase (Trk) inhibitors” (Genzyme Corporation, priority 2013, dated 2019).

Each structure is given as a SMILES string.

As to `COc1ccc(COc2ccc(Cn3c(N)nc4cc(-c5cnn(C)c5)cnc43)cc2OC)cc1` [Ex. 3-15, 3-(3-Methoxy-4-((4-methoxybenzyl)oxy)benzyl)-6-(1-methyl-1H-pyrazol-4-yl)-3H-imidazo[4,5-b]pyridin-2-amine], the “efficacy (weight bearing)” value in data set [1] (10 μg Contralateral injection) is “efficacy at 3 and 4 weeks following administration”. Moreover, in data set [1] (10 μg Ipsilateral injection), the “efficacy (weight bearing)” value is listed as “efficacy was observed at 2 through 4 weeks following administration”. In addition, in data set [1] (30 μg Contralateral injection), the “efficacy (weight bearing)” value is “efficacy at only the 3 week timepoint”. For the same compound, the “efficacy (weight bearing)” value in data set [1] (30 μg Ipsilateral injection) was “effective throughout the four weeks following administration”. Further, the “systemic pain relief (weight bearing)” value in data set [1] (100 μg Contralateral injection, 1-4 weeks) is reported as “did not show systemic pain relief at any timepoint”. Further, the “efficacy (weight bearing)” value in data set [1] (100 μg Ipsilateral injection) is recorded as “effective throughout the four weeks following administration”. Moreover, the “MIA/LRS compared with treatment (p<0.05)” value in data set [1] (Ipsilateral 100 μg and 30 μg, day 35) is given as “MIA/LRS was significantly worse”. Besides, the body weight results in data set [1] (intra-articular 10, 30, 100 μg on Day 8) is listed as “No adverse observations”. Moreover, the “Histopathology of the knee joint, adverse changes” value in data set [1] (stifles collected at day 36) is given as “no adverse changes”. In data set [2] (1 mg intra-articular), the “AUC values of knee caliper measurements” value is “generally unaffected”; the “reduction of AUC values of gait scores and deficiency, first reactivation” value was 92-93%; the “reduction of AUC values of gait scores and deficiency, second reactivation” value was 85-86%. Moreover, the Knee caliper measurements entry in data set [2] (1 mg intra-articular, day 14 (just prior to the second reactivation)) is listed as “significantly reduced on day 14”. Moreover, in data set [2], the “gait scores, second reactivation” value is “significantly reduced throughout the second reactivation”; the “gait deficiency, second reactivation” value is listed as “reductions in deficiency were significant”; the “gait scores and deficiency, first reactivation” value is “significant reductions”.
With `C[C@]12C=CC(=O)C=C1CC[C@H]1[C@@H]3C[C@@H](O)[C@](O)(C(=O)CO)[C@@]3(C)C[C@H](O)[C@@]12F` [Triamcinolone, reference compound], in data set [2] (setting [3]), the “reduction of AUC values of gait scores and deficiency, each reactivation calculated separately” value was 74-99%; the “reduction of AUC values of gait scores and deficiency, summed” value is 88-92%; the “reductions in the AUC of knee caliper measurements” value was 53-106%. In addition, the Knee caliper measurements entry in data set [2] (Triamcinolone 0.06 mg intra-articular, days 0, 2, 4, 16 and 18) is recorded as “significantly reduced”. For the same compound, in data set [2], the “gait scores, second reactivation” value is recorded as “significantly reduced”; the “gait deficiency, second reactivation” value is “significantly reduced”; the “gait scores and deficiency, first reactivation” value is recorded as “significantly reduced”.
